Earlier results in US20020182585A1, “Combination and method using EDTA, cystine, zinc and selenium for anti-thrombin effect and for anti-platelet aggregation and measurement of efficacy” (priority 2001, published 2002).

Settings: EDTA binding of the metal cation; adapted from Schwartzenbach, 1957

| SMILES | Stability Constant Log K |
| --- | --- |
| [Cd+2] [Cd^++] | 16.5 |
| [Co+2] [Co^++] | 16.3 |
| [Hg+2] [Hg^++] | 21.8 |
| [Ni+2] [Ni^++] | 18.0 |
| [Pb+2] [Pb^++] | 18.5 |
